Measured values as given in PubChem BioAssay AID2060491 (Molecular Pharmacology Branch, DTP, NCI, 2025).

System: 857933-349-R-J2-PDC complex spheroids, viability
Assay: Anticancer human tumor 857933-349-R-J2-PDC patient-derived colon adenocarcinoma cell line growth inhibition [GQUAD]
Conditions: for IC50: curve of first compound; for viability, T/C: stronger effect = lower value
How it was run: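 Tumor cells were grown as complex spheroids with HUVEC endothelial cells and mesenchymal stem cells as stroma. G-quadruplex stabilizers were combined with targeted agents over half-log dilutions from near the clinical Cmax, or from 10 microM.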

[1] = second compound 0.0316 µM, first compound 0.0316 µM
[2] = second compound 0.0316 µM, first compound 0.1 µM
[3] = second compound 0.0316 µM, first compound 0.316 µM
[4] = second compound 0.0316 µM, first compound 1 µM
[5] = second compound 0.0316 µM, first compound 3.16 µM
[6] = second compound 0.0316 µM, first compound 10 µM
[7] = second compound 0.1 µM, first compound 0.0316 µM
[8] = second compound 0.1 µM, first compound 0.1 µM
[9] = second compound 0.1 µM, first compound 0.316 µM
[10] = second compound 0.1 µM, first compound 1 µM
[11] = second compound 0.1 µM, first compound 3.16 µM
[12] = second compound 0.1 µM, first compound 10 µM
[13] = second compound 0.316 µM, first compound 0.0316 µM
[14] = second compound 0.316 µM, first compound 0.1 µM
[15] = second compound 0.316 µM, first compound 0.316 µM
[16] = second compound 0.316 µM, first compound 1 µM
[17] = second compound 0.316 µM, first compound 3.16 µM
[18] = second compound 0.316 µM, first compound 10 µM
[19] = second compound 1 µM, first compound 0.0316 µM
[20] = second compound 1 µM, first compound 0.1 µM
[21] = second compound 1 µM, first compound 0.316 µM
[22] = second compound 1 µM, first compound 1 µM
[23] = second compound 1 µM, first compound 3.16 µM
[24] = second compound 1 µM, first compound 10 µM
[25] = second compound 3.16 µM, first compound 0.0316 µM
[26] = second compound 3.16 µM, first compound 0.1 µM
[27] = second compound 3.16 µM, first compound 0.316 µM
[28] = second compound 3.16 µM, first compound 1 µM
[29] = second compound 3.16 µM, first compound 3.16 µM
[30] = second compound 3.16 µM, first compound 10 µM
[31] = second compound 10 µM, first compound 0.0316 µM
[32] = second compound 10 µM, first compound 0.1 µM
[33] = second compound 10 µM, first compound 0.316 µM
[34] = second compound 10 µM, first compound 1 µM
[35] = second compound 10 µM, first compound 3.16 µM
[36] = second compound 10 µM, first compound 10 µM
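Note: spheroids exposed to compounds for one week before readout.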
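Throughout, for viability, T/C: percent viability relative to vehicle DMSO wells taken as 100%.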

Compound Nc1ccn(C2OC(CO)C(O)C2(F)F)c(=O)n1 (stereo unspecified) + Cc1[nH]c2ccc(F)cc2c1-c1nc2c3cccnc3c3ncccc3c2[nH]1 has an IC50 (second compound 0.0316 µM) of 0.337 µM, an IC50 (second compound 0.1 µM) of 0.153 µM and an IC50 (second compound 0.316 µM) of 0.339 µM. It also gave an IC50 (second compound 1 µM) of 0.169 µM, an IC50 (second compound 3.16 µM) of 0.27 µM and an IC50 (second compound 10 µM) of 0.255 µM. For the same compound, the viability, T/C [1] was 73.6%, the viability, T/C [2] was 50.7% and the viability, T/C [3] was 53%. For the same compound, the viability, T/C [4] was 12.2%, the viability, T/C [5] was 8.63% and the viability, T/C [6] was 7.04%. For the same compound, the viability, T/C [7] was 81.9%, the viability, T/C [8] was 55.6% and the viability, T/C [9] was 40.1%. For the same compound, the viability, T/C [10] was 13.4%, the viability, T/C [11] was 8.84% and the viability, T/C [12] was 6.64%. It also gave a viability, T/C [13] of 71.9%, a viability, T/C [14] of 54.7% and a viability, T/C [15] of 53.2%. The viability, T/C [16] was 12%, the viability, T/C [17] was 7.77% and the viability, T/C [18] was 6.81%. For the same compound, the viability, T/C [19] was 76.5%, the viability, T/C [20] was 54.2% and the viability, T/C [21] was 45.2%. It also gave a viability, T/C [22] of 10.6%, a viability, T/C [23] of 8.22% and a viability, T/C [24] of 6.71%. The viability, T/C [25] was 74.5%, the viability, T/C [26] was 53.2% and the viability, T/C [27] was 50.2%. The viability, T/C [28] was 11.6%, the viability, T/C [29] was 8.23% and the viability, T/C [30] was 7.07%. It also gave a viability, T/C [31] of 73%, a viability, T/C [32] of 47.9% and a viability, T/C [33] of 48.8%. The viability, T/C [34] was 10.1%, the viability, T/C [35] was 7.69% and the viability, T/C [36] was 8.66%.
In the case of COc1ncnc(C2CC2)c1-c1ncc2cnn(Cc3ccc(-c4nc(C(F)(F)F)cn4C(C)C)cc3)c2n1 + Cc1[nH]c2ccc(F)cc2c1-c1nc2c3cccnc3c3ncccc3c2[nH]1, the IC50 (second compound 0.0316 µM) is reported as > 10 µM, the IC50 (second compound 0.1 µM) is reported as > 10 µM and the IC50 (second compound 0.316 µM) is reported as > 10 µM. The IC50 (second compound 1 µM) was > 10 µM, the IC50 (second compound 3.16 µM) was > 10 µM and the IC50 (second compound 10 µM) was > 10 µM. For the same compound, the viability, T/C [1] was 102%, the viability, T/C [2] was 104% and the viability, T/C [3] was 99%. It also gave a viability, T/C [4] of 104%, a viability, T/C [5] of 109% and a viability, T/C [6] of 103%. It also gave a viability, T/C [7] of 106%, a viability, T/C [8] of 106% and a viability, T/C [9] of 107%. The viability, T/C [10] was 106%, the viability, T/C [11] was 98% and the viability, T/C [12] was 102%. It also gave a viability, T/C [13] of 102%, a viability, T/C [14] of 100% and a viability, T/C [15] of 96.1%. It also gave a viability, T/C [16] of 100%, a viability, T/C [17] of 94.3% and a viability, T/C [18] of 95.6%. It also gave a viability, T/C [19] of 102%, a viability, T/C [20] of 91.4% and a viability, T/C [21] of 96.3%. It also gave a viability, T/C [22] of 87.9%, a viability, T/C [23] of 98.4% and a viability, T/C [24] of 90.7%. For the same compound, the viability, T/C [25] was 98%, the viability, T/C [26] was 83.1% and the viability, T/C [27] was 84.5%. The viability, T/C [28] was 83.2%, the viability, T/C [29] was 92.5% and the viability, T/C [30] was 83.4%. The viability, T/C [31] was 86.3%, the viability, T/C [32] was 87.7% and the viability, T/C [33] was 84.6%. The viability, T/C [34] was 91.3%, the viability, T/C [35] was 90.3% and the viability, T/C [36] was 88.2%.
CCCS(=O)(=O)Nc1ccc(F)c(C(=O)c2c[nH]c3ncc(-c4ccc(Cl)cc4)cc23)c1F + CN(C)c1ccc(Nc2c3ccc(NC(=O)CCN4CCCC4)cc3nc3cc(NC(=O)CCN4CCCC4)ccc23)cc1 showed an IC50 (second compound 0.0316 µM) of 5.65 µM, an IC50 (second compound 0.1 µM) of 5.53 µM and an IC50 (second compound 0.316 µM) of 5.65 µM. For the same compound, the IC50 (second compound 1 µM) was 5.45 µM, the IC50 (second compound 3.16 µM) was 5.03 µM and the IC50 (second compound 10 µM) was 3.18 µM. It also gave a viability, T/C [1] of 108%, a viability, T/C [2] of 101% and a viability, T/C [3] of 102%. For the same compound, the viability, T/C [4] was 96.8%, the viability, T/C [5] was 95.5% and the viability, T/C [6] was 5.26%. The viability, T/C [7] was 110%, the viability, T/C [8] was 106% and the viability, T/C [9] was 96.4%. For the same compound, the viability, T/C [10] was 106%, the viability, T/C [11] was 92.5% and the viability, T/C [12] was 5.04%. The viability, T/C [13] was 104%, the viability, T/C [14] was 101% and the viability, T/C [15] was 96.5%. It also gave a viability, T/C [16] of 96.7%, a viability, T/C [17] of 95.3% and a viability, T/C [18] of 5.41%. The viability, T/C [19] was 101%, the viability, T/C [20] was 89.6% and the viability, T/C [21] was 96.7%. It also gave a viability, T/C [22] of 93.1%, a viability, T/C [23] of 89.9% and a viability, T/C [24] of 5.58%. For the same compound, the viability, T/C [25] was 83.5%, the viability, T/C [26] was 73.5% and the viability, T/C [27] was 81.2%. It also gave a viability, T/C [28] of 75.8%, a viability, T/C [29] of 79.7% and a viability, T/C [30] of 7.65%. It also gave a viability, T/C [31] of 63.1%, a viability, T/C [32] of 66.5% and a viability, T/C [33] of 56.8%. It also gave a viability, T/C [34] of 59.1%, a viability, T/C [35] of 51% and a viability, T/C [36] of 12.3%.
